From ChEMBL document CHEMBL1127991, “Design, synthesis and evaluation of dual domain FKBP ligands” (Bioorg Med Chem Lett, 1994)

Tests used:
[1] = molecular target: T1, Peptidyl-prolyl cis-trans isomerase FKBP1A (Homo sapiens, UniProt P62942); experiment: Compound was tested for inhibitory activity against FK506 binding protein 12 (FKBP12); settings: read-out: Ki app
[2] = Immunosuppressant-like activity in an in vitro splenocyte mitogenesis assay at concentration up to 10 uM; ND means not detected; format: functional
[3] = Immunosuppressant-like activity in an in vitro splenocyte mitogenesis assay at concentration up to 10 uM; format: functional
[4] = molecular target: T1, Peptidyl-prolyl cis-trans isomerase FKBP1A; experiment: Compound was tested for inhibitory activity against FK506 binding protein 12 (FKBP12); Value ranges from 190-900 nM; settings: read-out: Ki app

T1 sequence (P62942 whole entry): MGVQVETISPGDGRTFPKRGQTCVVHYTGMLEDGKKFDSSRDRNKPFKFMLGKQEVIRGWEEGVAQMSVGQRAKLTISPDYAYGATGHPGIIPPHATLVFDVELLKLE

SMILES	Ki [1] [nM]	IC50 [2]	further results
CCC(C)(C)C(=O)C(=O)N1CCCC[C@H]1C(=O)O[C@H](CCc1ccccc1)c1cccc(C(=O)c2ccccc2)c1	5	Not detected	–
CC1(C)COC(=O)CCCCC(=O)/C=C/C(C)(C)[C@@H](CCc2ccccc2)OC(=O)[C@@H]2CCCCN2C(=O)C1=O	175	–	–
CC1(C)COC(=O)CCCCC(=O)CCC(C)(C)[C@@H](CCc2ccccc2)OC(=O)[C@@H]2CCCCN2C(=O)C1=O	25	–	–
C=CC[C@@H]1/C=C(\C)C[C@H](C)C(=O)OCC(C)(C)C(=O)C(=O)N2CCCC[C@H]2C(=O)OCCCOC1=O	130	–	–
C=CC[C@@H]1/C=C(\C)C[C@H](C)C(=O)OCC(C)(C)C(=O)C(=O)N2CCCC[C@H]2C(=O)O[C@H](CCc2ccccc2)[C@H](C)COC1=O	6000	–	–
CCC(C)(C)C(=O)C(=O)N1CCCC[C@H]1C(=O)O[C@H](CCc1ccccc1)C(C)(C)/C=C/C(=O)C1CCCCC1	340	Not detected	–
C=CC[C@@H]1/C=C(\C)C[C@H](C)C[C@H](OC)[C@H]2O[C@@](O)(C(=O)C(=O)N3CCCC[C@H]3C(=O)O[C@H](/C(C)=C/[C@@H]3CC[C@@H](O)[C@H](OC)C3)[C@H](C)[C@@H](O)CC1=O)[C@H](C)C[C@@H]2OC [TACROLIMUS ANHYDROUS]	–	–	IC50 [3]: 1 nM
C=CC[C@@H]1/C=C(\C)C[C@H](C)C(=O)OCCCC(C)(C)C(=O)C(=O)N2CCCC[C@H]2C(=O)O[C@H](CCc2ccccc2)[C@H](C)COC1=O	> 5000	–	–
CCCC(CCC)C(=O)/C=C/C(C)(C)[C@@H](CCc1ccccc1)OC(=O)[C@@H]1CCCCN1C(=O)C(=O)C(C)(C)CC	–	Not detected	Ki [4]: 190 nM
C=CC[C@@H]1/C=C(\C)C[C@H](C)C(=O)OCCCC(C)(C)C(=O)C(=O)N2CCCC[C@H]2C(=O)OCCCOC1=O	400	–	–
C=CCN(CC=C)C(=O)c1cccc([C@@H](CCc2ccccc2)OC(=O)[C@@H]2CCCCN2C(=O)C(=O)C(C)(C)CC)c1	5	Not detected	–
CCC(C)(C)C(=O)C(=O)N1CCCC[C@H]1C(=O)O[C@H](CCc1ccccc1)C(C)(C)/C=C/C(=O)c1ccccc1	–	Not detected	Ki [4]: 190 nM
CC1(C)COC(=O)CCCCCCCCC(=O)c2cccc(c2)C(CCc2ccccc2)OC(=O)[C@@H]2CCCCN2C(=O)C1=O (stereo partly drawn)	20	–	–
